Laboratory results reported in patent US5681817A, “Treatment of ovarian estrogen dependent conditions” (The Medical College of Hampton Roads, priority 1994, dated 1997).
“Also recorded” adds a separate entry of the source.

Columns and labels:
uterine leiomyomata = conditions: cited from earlier work
[1] = system: female cynomolgus monkeys; test: Ovulation and serum estradiol/progesterone by RIA in monkeys with induced endometriosis; assay type: in vivo, cynomolgus monkeys (Macaca facularis); conditions: for mean tonic serum estradiol level: RIA, FIG. 1, control 40.6±43; for suppression of ovulation: treatment alone
Experimental: For the purposes of this study, the gonadotropin releasing hormone agonist selected was leuprolide acetate, the anti-progestin selected was RU 486 and these were administered to female cynomolgus monkeys, which are recognized to be a highly desirable model for human research.
Thirty-six adult female cynomolgus monkeys (Macaca facularis) having regular menstrual cycles were housed in individual cages which had food and water available ad librium.
(§1) Using anesthesia (ketamine 20 mg/kg im, xylazine, 1 mg/kg) on day 3 of the menstrual cycle, a diagnostic laparoscopy was performed to rule out pelvic adhesive disease or extant endometriosis. Monkeys with observable pelvic adhesions were excluded. Blood was collected on menstrual days 8-14 via venipuncture (ketamine 10 mg/kg im), and serum assayed for estradiol-17β by RIA. Laparotomy (ketamine 20 mg/kg, xylazine 1 mg/kg) was performed 3-5 days after a clearly defined pre-ovulatory estradiol peak. A 2 cm fundal hysterotomy was performed and approximately 100 mg of endometrium removed by curettage and minced in sterile 0.9% saline. The uterine incision was closed with 4-0 vicryl suture. The minced endometrial tissue was injected sub-peritoneally into five sites, namely, the left and right vesicouterine fold, right and left broad ligaments, and the cul-de-sac.
(§2) Primates were divided equally into four treatment groups (N=8). Group 1 was given monthly injections of the gonadotropin releasing hormone agonist, in an amount of 80 μg/kg im on menstrual day 21 of the second laparotomy cycle. This was continued at 28 day intervals for a total of 3 injections, at which time weekly injections of the antiprogestin RU 486 began, (5 mg/kg im, in oil, initially, then 2 mg/kg/week). RU 486 was continued for a period of 24 weeks.
(§3) Group 2 was given weekly im injections of RU 486 alone (5 mg/kg initially, then 2 mg/kg/week) beginning on menstrual day 1 of the cycle after the endometriosis was confirmed. This was continued for a treatment period of 36 weeks. Group 3 was given doses of the GnRH analog alone for 36 weeks. Group 4 was a control and received vehicle, 0.5 ml of normal saline im, weekly for 36 weeks.
Using ketamine anesthesia, blood was collected on alternate days in all groups for 28 days after the initial treatments following confirmation of active endometriosis. The serum was frozen for later analysis. Thereafter, blood was collected weekly. Blood draws continued until spontaneous menses resumed, or two months after the conclusion of injections, whichever came first. Serum was frozen, labelled, and stored for subsequent radioimmunoassay. Estradiol and progesterone were assayed using RIA (ICN Biomedical, Los Angeles, Calif.).

[2] = system: peritoneal endometriosis (ectopic endometrial implants); test: Area of ectopic endometrium on peritoneal surfaces at staging laparotomy; assay type: in vivo, cynomolgus monkeys (Macaca facularis); conditions: for area of ectopic endometrium on peritoneal surfaces / size of endometrial implants: post-treatment vs pre-treatment and vs control, FIG. 2, Wilcoxon p<0.05; for mean area of peritoneal disease after switch from GnRH analog to RU 486: Group 1, RU 486 for three months after the course of GnRH analog
Experimental: as §1
During the subsequent menstrual cycle, laparotomy was performed 3 to 5 days after the mid-cycle estradiol surge. The presence of ectopic endometrial tissue and the extent of adhesions were noted, with peritoneal implants carefully measured. Photographs of all lesions were taken and assigned a random number for later histological staging of the endometriosis by an independent observer. Biopsies were taken from representative lesions, and the tissue fixed in 10% formalin for histologic examination after hematoxylin and eosin staining.
as §2, §3
After daily injections began, a staging laparotomy was performed every 12 weeks until the end of therapy to assess the progression or regression of the disease.

[3] = system: bone mineral density of the lumbar spine; test: Dual X-ray absorptiometry bone mineral density of the lumbar spine; assay type: in vivo, cynomolgus monkeys (Macaca facularis); conditions: for change in bone density: after three months of treatment, group level; for bone density in fast bone losers: group 1 animals losing bone on GnRH analog (e.g. monkey 2190, FIG. 3), three months GnRH analog, then three months antiprogestin
Experimental: as §2, §3
Urine was collected at the time of blood sampling. The first sample was taken at the time of the first laparotomy and the second sample was taken at the time of the first injection with subsequent samples drawn every four weeks from the time of the second urine sample. Dual X-ray absorptiometry (DXA, Norland) was used to measure the bone mineral density of the lumbar spine. Primates were anesthetized with ketamine and restrained to minimize motion artifact. DXA was performed before injections began and at three month intervals until completion of the study.

[4] = system: endometrial and vaginal epithelium; test: Histological assessment of endometrium and vaginal epithelium (hematoxylin and eosin); assay type: in vivo, cynomolgus monkeys (Macaca facularis); conditions: for ENDOMETRIUM MENTRUAL PHASE / ENDOMETRIUM THICKNESS / VAGINAL EPITHELIUM AND KERATIN: histology; for ENDOMETRIUM MENTRUAL PHASE / ENDOMETRIUM THICKNESS: hematoxylin and eosin; for VAGINAL EPITHELIUM AND KERATIN: thickness
Experimental: Primates were divided equally into four treatment groups (N=8). Group 1 was given monthly injections of the gonadotropin releasing hormone agonist, in an amount of 80 μg/kg im on menstrual day 21 of the second laparotomy cycle. This was continued at 28 day intervals for a total of 3 injections, at which time weekly injections of the antiprogestin RU 486 began, (5 mg/kg im, in oil, initially, then 2 mg/kg/week). RU 486 was continued for a period of 24 weeks. Group 2 was given weekly im injections of RU 486 alone (5 mg/kg initially, then 2 mg/kg/week) beginning on menstrual day 1 of the cycle after the endometriosis was confirmed. This was continued for a treatment period of 36 weeks. Group 3 was given doses of the GnRH analog alone for 36 weeks. Group 4 was a control and received vehicle, 0.5 ml of normal saline im, weekly for 36 weeks. Vaginal epithelium was obtained at the time of each surgery using Kevorkian biopsy forceps taken from the lateral vaginal side of the upper two-thirds of the vagina. At the time of each laparotomy, a small repeat hysterotomy was performed for the purpose of endometrial sampling for histologic examination.

endometriosis = conditions: cited from earlier work

In the case of CC(=O)O[C@]1(C(C)=O)CC[C@H]2[C@@H]3C[C@H](C)C4=CC(=O)CC[C@]4(C)[C@H]3CC[C@@]21C [medoxyprogesterone acetate], the “hot flashes and urinary calcium loss” value (uterine leiomyomata; add-back regimen with leuprolide) is listed as “reduced”, the total uterine volume (uterine leiomyomata; add-back regimen with leuprolide, not back to baseline values) is listed as “modest increase” and the “effect on agonist-induced decrease of nonmyoma volume” value (uterine leiomyomata; concomitant treatment with leuprolide) is listed as “reverse the effectiveness”.
With CCNC(=O)[C@@H]1CCCN1C(=O)[C@H](CCCNC(=N)N)NC(=O)[C@H](CC(C)C)NC(=O)[C@@H](CC(C)C)NC(=O)[C@H](Cc1ccc(O)cc1)NC(=O)[C@H](CO)NC(=O)[C@H](Cc1c[nH]c2ccccc12)NC(=O)[C@H](Cc1c[nH]cn1)NC(=O)[C@@H]1CCC(=O)N1 [GnRH analog, leuprolide acetate] the “mean tonic serum estradiol level” value [1] was 24.2 ± 17 pg/mL, the suppression of ovulation [1] was “suppression of ovulation” and the “area of ectopic endometrium on peritoneal surfaces / size of endometrial implants” value [2] was “unequivocal limiting impact”. For the same compound, the “change in bone density” value [3] was “no change”, the “bone density in fast bone losers” value [3] was “significant degree of bone loss” and the “ENDOMETRIUM MENTRUAL PHASE” value [4] was “weakly proliferative”. The “ENDOMETRIUM THICKNESS” value [4] was “uniformly thin”, the “ENDOMETRIUM THICKNESS” value ([4]; listed as ANALOG ONLY) was “THIN” and the “VAGINAL EPITHELIUM AND KERATIN” value [4] was “THIN”.
For CC#C[C@]1(O)CC[C@H]2[C@@H]3CCC4=CC(=O)CCC4=C3[C@@H](c3ccc(N(C)C)cc3)C[C@@]21C [RU 486, mifepristone], the “mean tonic serum estradiol level” value [1] was 57.8 ± 34.6 pg/mL, the suppression of ovulation [1] was “suppression of ovulation” and the “mean area of peritoneal disease after switch from GnRH analog to RU 486” value [2] was “remained the unchanged”. The “mean area of peritoneal disease after switch from GnRH analog to RU 486” value ([2]; listed as antiprogestin) was “able to sustain the reduced surface of peritoneal endometriosis”, the “area of ectopic endometrium on peritoneal surfaces / size of endometrial implants” value [2] was “unequivocal limiting impact” and the “bone density, PRE-TREATMENT (MEAN ± SD)” value ([3]; DXA lumbar spine, baseline before injections) was 0.501 ± 0.029. For the same compound, the “bone density, AFTER 3 MONTHS” value ([3]; DXA lumbar spine, mean ± SD, in group 1 the first 3 months are GnRH analog) was 0.541 ± 0.033, the “change in bone density” value [3] was “marginally significant increase in bone density” and the “bone density in fast bone losers” value [3] was “counteracted this loss; also recorded: returned to baseline”. The vaginal atrophy ([4]; cynomolgus monkey, in vivo) was “not noted”, the “ENDOMETRIUM MENTRUAL PHASE” value [4] was “interval phase” and the “ENDOMETRIUM THICKNESS” value ([4]; listed as antiprogestin) was “thinner than in control monkeys; also recorded: remained moderately thin”. The “VAGINAL EPITHELIUM AND KERATIN” value ([4]; listed as antiprogestin) was “greater in the antiprogestin group than in the GnRH analog groups; also recorded: thicker”.
In the case of C#C[C@]1(O)CC[C@H]2[C@@H]3CCC4=Cc5oncc5C[C@]4(C)[C@H]3CC[C@@]21C [danazol, 17-α-pregna-2,4-dien-20-yno[2,3-d]-isoxazol-17-ol], the side effects (endometriosis; in vivo) is listed as “many androgenic side effects” and the “efficacy in treatment of endometriosis” value (endometriosis; producing a hypoestrogenic milieu) is listed as “effective medication for the treatment of endometriosis”.
